Measurements as given in patent publication US20200377496A1, “INDOLE AND BENZIMIDAZOLE DERIVATIVES AS DUAL 5-HT2A and 5-HT6 RECEPTOR ANTAGONISTS” (ADAMED PHARMA, S.A., priority 2018, published 2020).
Where two headings read alike, the source gives them in different places.

Tests used:
human 5-HT2A receptor = human 5-HT2A receptor (Homo sapiens, UniProt P28223); assay: 5-HT2A receptor binding assay ([3H]-ketanserin radioligand)
Method: (§1) Preparation of Solutions of Test and Reference Compounds.
(§2) 1 mM stock solutions of tested compounds were prepared in DMSO. Serial dilutions of compounds were prepared in 96-well microplate in assay buffers using automated pipetting system epMotion 5070 (Eppendorf). Each compound was tested in 10 concentrations from 1.0E-6 to 1.0E-11 M (final concentration).
5-HT2A Receptor Binding Assay.
Radioligand binding was performed using membranes from CHO K1 cells stably transfected with the human 5-HT2A receptor (PerkinElmer). All assays were carried out in duplicates. 50 μl working solution of the tested compounds, 50 μl [3H]-ketanserin (final concentration 1 nM) and 150 μl diluted membranes (7 μg protein per well) prepared in assay buffer (50 mM Tris, pH 7.4, 4 mM CaCl2, 0.1% ascorbic acid) were transferred to polypropylene 96-well microplate using 96-wells pipetting station Rainin Liquidator (MettlerToledo). Mianserin (10 μM) was used to define nonspecific binding. Microplate was covered with a sealing tape, mixed and incubated for 60 minutes at 27° C. The reaction was terminated by rapid filtration through GF/B filter mate presoaked with 0.5% polyethyleneimine for 30 minutes. Ten rapid washes with 200 μl 50 mM Tris buffer (4° C., pH 7.4) were performed using automated harvester system Harvester-96 MACH III FM (Tomtec). The filter mates were dried at 37° C. in forced air fan incubator and then solid scintilator MeltiLex was melted on filter mates at 90° C. for 5 minutes. Radioactivity was counted in MicroBeta2 scintillation counter (PerkinElmer). Data were fitted to a one-site curve-fitting equation with Prism 6 (GraphPad Software) and Ki values were estimated from the Cheng-Prusoff equation.

human GPCR 5-HT2A = human GPCR 5-HT2A (Homo sapiens, UniProt P28223); assay: Cellular aequorin-based functional assay, 5-HT2A; type: cell-based; settings: for 5-HT2A AGO EC50 [nM]: agonist mode, CHO-K1 aequorin cells
Method: as §1
(§3) 1 mM stock solutions of the tested compounds were prepared in DMSO. Serial dilutions were prepared in 96-well microplate in assay buffers using automated pipetting system epMotion 5070 (Eppendorf). Two independent experiments in duplicates were performed and 6 to 10 concentrations were tested.
(§4) 5-HT2A and 5-HT6 Functional Activity Assays.
(§5) Cellular aequorin-based functional assays were performed with γ-irradiated recombinant CHO-K1 cells expressing mitochondrially-targeted Aequorin, human GPCR (5-HT2A or 5-HT6) and the promiscuous G protein α16 (PerkinElemer). Assays were performed according to the standard protocol provided by the manufacturer. After thawing, cells were transferred to assay buffer (DMEM/HAM's F12 with 0.1% protease-free BSA) and centrifuged. Cell pellet was resuspended in assay buffer and coelenterazine h was added at final concentrations of 5 μM. Cell suspension was incubated at 21° C., protected from light with constant agitation, for 4 hours and then diluted with assay buffer to a concentration of 250,000 cells/ml. After 1 hour incubation 50 yl cell suspension was dispensed using automatic injectors built in radiometric and luminescence plate counter MicroBeta2 LumiJET (PerkinElmer, USA) into white opaque 96-well microplate preloaded with tested compounds. Immediate light emission generated following calcium mobilization was recorded for 30-60 seconds. In antagonist mode, after 15-30 minutes incubation reference agonist was added to the above assay mix and light emission was recorded again. Final concentration of reference agonist was equal EC80: serotonin 40 nM for 5-HT6 receptor and α-methylserotonin 30 nM for 5-HT2A receptor. The assays were performed in the agonist mode (5-HT6 AGO and 5-HT2A AGO) as well as antagonist mode (5-HT6 ANT and 5-HT2A ANT).
(§6) IC50 and EC50 were determined by non-linear regression analysis using GraphPad Prism 6.0 software. The log IC50 was used to obtain the Kb by applying the Cheng-Prusoff approximation.

human GPCR 5-HT6 = human GPCR 5-HT6 (Homo sapiens, UniProt P50406); assay: Cellular aequorin-based functional assay, 5-HT6; type: cell-based; settings: for 5-HT6 AGO EC50 [nM]: agonist mode, CHO-K1 aequorin cells; for Kb: antagonist mode, reference agonist serotonin 40 nM (EC80), read-out: 5-HT6 ANT Kb
Method: as §1, §3, §4, §5, §6

5-HT6 receptors = 5-HT6 receptors (Homo sapiens, UniProt P50406); assay: 5-HT6 receptor binding assay ([3H]-LSD radioligand); settings: membranes from CHO-K1 cells with human 5-HT6 receptor, [3H]-LSD 1 nM
Method: as §1, §2
5-HT6 Receptor Binding Assay.
Radioligand binding was performed using membranes from CHO-K1 cells stably transfected with the human 5-HT6 receptor (PerkinElmer). All assays were carried out in duplicates. 50 μl working solution of the tested compounds, 50 μl [3H]-LSD (final concentration 1 nM) and 150 μl diluted membranes (8 μg protein per well) prepared in assay buffer (50 mM Tris, pH 7.4, 10 mM MgCl2, 0.1 mM EDTA) were transferred to polypropylene 96 well microplate using 96-wells pipetting station Rainin Liquidator (MettlerToledo). Methiothepin (10 μM) was used to define nonspecific binding. Microplate was covered with a sealing tape, mixed and incubated for 60 minutes at 37° C. The reaction was terminated by rapid filtration through GF/A filter mate presoaked with 0.5% polyethyleneimine for 30 minutes. Ten rapid washes with 200 μl 50 mM Tris buffer (4° C., pH 7.4) were performed using automated harvester system Harvester-96 MACH III FM (Tomtec). The filter mates were dried at 37° C. in forced air fan incubator and then solid scintilator MeltiLex was melted on filter mates at 90° C. for 5 minutes. Radioactivity was counted in MicroBeta2 scintillation counter (PerkinElmer). Data were fitted to a one-site curve-fitting equation with Prism 6 (GraphPad Software) and Ki values were estimated from the Cheng-Prusoff equation.

[1] = membranes from CHO K1 cells with human 5-HT2A receptor, [3H]-ketanserin 1 nM, read-out: 5-HT2A Ki
[2] = antagonist mode, reference agonist α-methylserotonin 30 nM (EC80), read-out: 5-HT2A ANT Kb

human GPCR 5-HT2A, sequence (P28223 whole entry): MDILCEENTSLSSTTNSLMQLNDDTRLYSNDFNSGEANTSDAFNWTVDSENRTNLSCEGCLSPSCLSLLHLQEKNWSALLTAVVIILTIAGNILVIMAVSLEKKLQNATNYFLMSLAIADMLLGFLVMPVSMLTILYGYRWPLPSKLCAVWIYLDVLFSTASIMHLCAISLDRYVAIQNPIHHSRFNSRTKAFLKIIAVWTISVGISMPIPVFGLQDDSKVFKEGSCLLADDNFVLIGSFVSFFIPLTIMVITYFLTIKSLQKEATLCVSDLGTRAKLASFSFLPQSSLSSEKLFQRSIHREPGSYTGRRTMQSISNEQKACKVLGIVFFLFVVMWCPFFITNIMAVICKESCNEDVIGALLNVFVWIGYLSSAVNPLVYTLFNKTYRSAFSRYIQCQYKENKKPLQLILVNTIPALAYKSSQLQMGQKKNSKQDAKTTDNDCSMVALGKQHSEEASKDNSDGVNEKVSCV
human 5-HT2A receptor, sequence (P28223 whole entry): as above
5-HT6 receptors, sequence (P50406 whole entry): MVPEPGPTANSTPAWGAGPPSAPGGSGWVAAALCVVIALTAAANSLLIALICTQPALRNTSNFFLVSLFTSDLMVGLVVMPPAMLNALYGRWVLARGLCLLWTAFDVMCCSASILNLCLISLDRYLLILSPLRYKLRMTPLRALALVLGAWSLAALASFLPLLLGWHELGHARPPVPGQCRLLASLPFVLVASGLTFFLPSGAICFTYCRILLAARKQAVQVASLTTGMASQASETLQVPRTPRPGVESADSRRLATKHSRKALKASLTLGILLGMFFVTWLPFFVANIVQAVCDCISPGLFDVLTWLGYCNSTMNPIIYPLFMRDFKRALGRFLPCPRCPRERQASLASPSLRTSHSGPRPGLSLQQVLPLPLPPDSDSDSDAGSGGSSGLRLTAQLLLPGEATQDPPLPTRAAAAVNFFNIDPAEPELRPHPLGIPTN
human GPCR 5-HT6, sequence (P50406 whole entry): as above

Row | SMILES | Ki (human 5-HT2A receptor) [nM] | Kb (human GPCR 5-HT2A) [nM] | 5-HT2A AGO EC50 [nM] (human GPCR 5-HT2A) | 5-HT6 AGO EC50 [nM] (human GPCR 5-HT6) | Kb (human GPCR 5-HT6) [nM] | Ki (human 5-HT2A receptor; [1]) [nM] | Ki (5-HT6 receptors) [nM] | Kb (human GPCR 5-HT2A; [2]) [nM]
1 | FC(F)(F)c1cc2c(N3CCNCC3)cccc2n1Cc1cccc(Cl)c1 [Compound 20, 1-(3-chloroobenzyl)-4-(piperazin-1-yl)-2-(trifluoromethyl)-1H-indole] | 2.2 | 53 | N.C. | N.C. | 1.2 |  |  | 
2 | COc1cccc(Cn2c(C(F)(F)F)cc3c(N4CCN(C)CC4)cccc32)c1 [Compound 18, 1-(3-methoxybenzyl)-4-(4-methylpiperazin-1-yl)-2-(trifluoromethyl)-1H-indole] |  |  |  |  |  | 4.2 | 0.27 | 
3 | FC(F)(F)c1nc2c(N3CCNCC3)cccc2n1Cc1cccc(Cl)c1 [Compound 6, 1-(3-chlorobenzyl)-4-(piperazin-1-yl)-2-(trifluoromethyl)-1H-benzimidazole] |  |  |  |  |  | 3.8 | 1.7 | 
4 | Cc1ccc(Cn2c(C(F)(F)F)cc3c(N4CCNCC4)cccc32)s1 [Compound 29, 1-[(5-methylthiophen-2-yl)methyl]-4-(piperazin-1-yl)-2-(trifluoromethyl)-1H-indole] | 0.37 | 9.8 | N.C. | N.C. | 0.051 |  | 0.11 | 
5 | CN1CCN(c2cccc3c2cc(C(F)(F)F)n3Cc2ccc(Cl)c(F)c2)CC1 [Compound 14, 1-(4-chloro-3-fluorobenzyl)-4-(4-methylpiperazin-1-yl)-2-(trifluoromethyl)-1H-indole] |  |  | N.C. | N.C. | 5.5 | 0.39 | 0.65 | 59
6 | CN1CCN(c2cccc3c2cc(C(F)(F)F)n3Cc2ccc(F)c(F)c2)CC1 [Compound 22, 1-(3,4-difluorobenzyl)-4-(4-methylpiperazin-1-yl)-2-(trifluoromethyl)-1H-indole] |  |  | N.C. | N.C. | 4.8 | 0.45 |  | 26
7 | CN1CCN(c2cccc3c2cc(C(F)(F)F)n3Cc2ccccc2)CC1 [Compound 26, 1-benzyl-4-(4-methylpiperazin-1-yl)-2-(trifluoromethyl)-1H-indole] |  |  |  |  |  | 0.91 | 0.087 | 
8 | CN1CCN(c2cccc3c2nc(C(F)(F)F)n3Cc2ccccc2)CC1 [Compound 2, 1-benzyl-4-(4-methylpiperazin-1-yl)-2-(trifluoromethyl)-1H-benzimidazole] |  |  |  |  |  | 3.1 | 2.2 | 
9 | Fc1cccc(Cn2c(C(F)(F)F)cc3c(N4CCNCC4)cccc32)c1 [Compound 19, 1-(3-fluorobenzyl)-4-(piperazin-1-yl)-2-(trifluoromethyl)-1H-indole] | 1.3 | 21 | N.C. | N.C. | 0.14 |  | 0.35 | 
10 | Fc1cccc(Cn2c(C(F)(F)F)nc3c(N4CCNCC4)cccc32)c1 [Compound 7, 1-(3-fluorobenzyl)-4-(piperazin-1-yl)-2-(trifluoromethyl)-1H-benzimidazole] |  |  | N.C. | N.C. | 1.9 | 2.9 | 1.6 | 22
11 | Fc1ccc(Cn2c(C(F)(F)F)cc3c(N4CCNCC4)cccc32)cc1F [Compound 25, 1-(3,4-difluorobenzyl)-4-(piperazin-1-yl)-2-(trifluoromethyl)-1H-indole] |  |  | N.C. | N.C. | 0.65 | 0.71 | 0.37 | 20
12 | FC(F)(F)c1cc2c(N3CCNCC3)cccc2n1Cc1ccccc1 [Compound 12, 1-benzyl-4-(piperazin-1-yl)-2-(trifluoromethyl)-1H-indole] | 2.1 | 31 | N.C. | N.C. | 0.49 |  | 0.29 | 
13 | CN1CCN(c2cccc3c2cc(C(F)(F)F)n3Cc2cccs2)CC1 [Compound 33, 4-(4-methylpiperazin-1-yl)-1-(thiophen-2-ylmethyl)-2-(trifluoromethyl)-1H-indole] |  |  | N.C. | N.C. | 0.28 | 0.17 | 0.069 | 9.7
14 | CN1CCN(c2cccc3c2cc(C(F)(F)F)n3Cc2cccc(Cl)c2)CC1 [Compound 27, 1-(3-chlorobenzyl)-4-(4-methylpiperazin-1-yl)-2-(trifluoromethyl)-1H-indole] |  |  | N.C. | N.C. | 0.31 |  |  | 56
15 | COc1cccc(Cn2c(C(F)(F)F)cc3c(N4CCNCC4)cccc32)c1 [Compound 23, 1-(3-methoxybenzyl)-4-(piperazin-1-yl)-2-(trifluoromethyl)-1H-indole] |  |  | N.C. | N.C. | 0.26 |  |  | 28
16 | FC(F)(F)c1nc2c(N3CCNCC3)cccc2n1Cc1ccc(Cl)c(Cl)c1 [Compound 8, 1-(3,4-dichlorobenzyl)-4-(piperazin-1-yl)-2-(trifluoromethyl)-1H-benzo[d]imidazole] |  |  |  |  |  | 2.9 | 2 | 
17 | CN1CCN(c2cccc3c2cc(C(F)(F)F)n3Cc2ccco2)CC1 [Compound 21, 1-(furan-2-ylmethyl)-4-(4-methylpiperazin-1-yl)-2-(trifluoromethyl)-1H-indole] |  |  | N.C. | N.C. | 0.27 |  | 0.18 | 4.3
